This test deals with SMN protein. Description: cellular SMN ELISA (SMN protein elevation) in myoblast cell line from SMNdelta7 mouse model. It is filed as cell-based. How it is done: A cellular SMN ELISA was used to measure the effects of low molecular weight compounds on SMN protein elevation. Cells from a myoblast cell line derived from the SMNdelta7 mouse model (kind gift from Steve Burden, NYU) were seeded into a 384-well plate at a density of 3000 cells/well and treated with compounds for 24 hours. ELISA capture plates were prepared by coating 384-well plates (Immulon 4HBX) with 0.5 ug/mL of anti-SMN mAb (BD Science, Catalog number 610647) at 4° C. overnight. The plates were washed 5 times with 110 uL of PBS-Tween (0.05% Tween-20, PBST), blocked with 100 uL of 1% BSA in PBST for 2 hours and washed (5 times) with 100 uL of PBST. After 24 hours of compound treatment cells were lysed in a modified RIPA-buffer, on ice for 1 hour. 20 uL of lysate and 20 uL of 1% BSA were then added to the ELISA capture plates and incubated at 4° C. overnight. Plates were washed (5 times) with PBST and then incubated with 1:100 dilution of primary rabbit anti-SMN polyclonal antibody (Santa cruz, Catalog number SC-15320) at room temperature for 1 hour and subsequently washed (5 times) with 110 uL of PBST. This was followed by addition of 1:100 Goat anti-Rabbit IgG-HRP linked (Cell Signaling, Catalog number 7074) secondary antibody for 1 hour. Plates were then washed with PBST and incubated with 40 uL TMB substrate (Cell Signaling, Catalog number 7004 L) at room temperature for 1-10 minutes with shaking. The reaction was stopped by addition of 40 uL of stop solution (Cell signaling, Catalog number 7002 L) and absorption was measured at 450 nm. Data was reported as fold activation over DMSO control, and EC50.
ELISA assay condition 1: compound concentration range 20 nM-10 uM; ELISA assay condition 2: compound concentration 100 pM-10 uM. Data generated in Biological Example 1 using ELISA conditions 1 or 2.

The mark [1] stands for this setting: Biological Example 1, SMN ELISA, SMNdelta7 mouse myoblasts, 24 hours compound treatment.
Setting [2] is: Biological Example 1, SMN ELISA, SMNdelta7 mouse myoblasts, 24 hours compound treatment, read-out: SMN Activity (EC50).
Setting [3] is: comparison of unsubstituted, ortho-hydroxy and ortho-alkoxy pyridazines, as in Biological Example 1.
Setting [4] is: comparison of unsubstituted, ortho-hydroxy and ortho-alkoxy pyridazines, as in Biological Example 1, read-out: SMN ELISA EC50.

The record followed here is US11672799B2, “1,4-disubstituted pyridazine quinolne analogs there of and methods for treating SMN-deficiency-related conditions” (Novartis AG, priority 2013, dated 2023).

Read-outs that look alike come from different tables or passages of the source.

With `CN(c1ccc(-c2cc3cc(C4CCOCC4)cnc3cc2O)nn1)C1CC(C)(C)NC(C)(C)C1` [Example 14-1, 6-(6-(methyl(2,2,6,6-tetramethylpiperidin-4-yl)amino)pyridazin-3-yl)-3-(tetrahydro-2H-pyran-4-yl)quinolin-7-ol], the “SMN Activity (fold activation over DMSO control)” value under setting [1] was 2.91 fold. The concentration for a half-maximal effect (EC50) under setting [2] was 0.063 µM.

`CN(c1ccc(-c2cc3cnccc3cc2O)nn1)C1CC(C)(C)NC(C)(C)C1` [Example 3-2, 7-(6-(methyl(2,2,6,6-tetramethylpiperidin-4-yl)amino)pyridazin-3-yl)isoquinolin-6-ol]: the “SMN Activity (fold activation over DMSO control)” value under setting [1] was determined as 2.75 fold. Besides, the EC50 under setting [2] is 0.005 µM and the EC50 under setting [4] amounted to 0.005 µM. The Fold activation under setting [3] amounted to 2.8.

As for `CCOc1cc2nccnc2cc1-c1ccc(N(C)C2CC(C)(C)NC(C)(C)C2)nn1` [drawing 139 R = OEt, 6-(7-Ethoxyquinoxalin-6-yl)-N-methyl-N-(2,2,6,6-tetramethylpiperidin-4-yl)pyridazin-3-amine], the “SMN ELISA EC50” value under setting [3] was “Inactive”.

Turning to `Cc1ccc2cc(-c3ccc(N(C)C4CC(C)(C)NC(C)(C)C4)nn3)c(O)cc2n1` [Example 2-1, 2-methyl-6-(6-(methyl(2,2,6,6-tetramethylpiperidin-4-yl)amino)pyridazin-3-yl)quinolin-7-ol], the “SMN Activity (fold activation over DMSO control)” value under setting [1] was found to be 3.0 fold. Moreover, the EC50 under setting [2] turned out to be 0.02 µM.

Turning to `N#Cc1ccc2cc(-c3ccc(N4CCNCC4)nn3)c(O)cc2n1` [Example 27-2, 7-hydroxy-6-(6-(piperazin-1-yl)pyridazin-3-yl)quinoline-2-carbonitrile], under setting [1], the “SMN Activity (fold activation over DMSO control)” value was found to be 2.42 fold. The concentration giving a half-maximal response (EC50) under setting [2] is 0.395 µM.

For `CN(c1ccc(-c2cc3ccc(=O)n(C)c3cc2O)nn1)C1CC(C)(C)NC(C)(C)C1` [Example 9-2, 7-hydroxy-1-methyl-6-(6-(methyl(2,2,6,6-tetramethylpiperidin-4-yl)amino)pyridazin-3-yl)quinolin-2(1H)-one], the “SMN Activity (fold activation over DMSO control)” value under setting [1] worked out at 2.25 fold. Moreover, the EC50 under setting [2] turned out to be 0.007 µM.

On to `CN(c1ccc(-c2cc3c(C(N)=O)nccc3cc2O)nn1)C1CC(C)(C)NC(C)(C)C1` [Example 26-4, 6-hydroxy-7-(6-(methyl(2,2,6,6-tetramethylpiperidin-4-yl)amino)pyridazin-3-yl)isoquinoline-1-carboxamide], for which the “SMN Activity (fold activation over DMSO control)” value under setting [1] is reported as 2.57 fold. Further, the EC50 under setting [2] is 0.007 µM.

As to `CN(c1ccc(-c2cc3ncccc3cc2O)nn1)C1CC(C)(C)NC(C)(C)C1` [Example 6-1, 7-(6-(methyl(2,2,6,6-tetramethylpiperidin-4-yl)amino)pyridazin-3-yl)quinolin-6-ol], under setting [1], the “SMN Activity (fold activation over DMSO control)” value was found to be 2.82 fold. For the same molecule, the EC50 came to 0.007 µM under setting [2] and 0.007 µM under setting [4]. Under setting [3], this molecule showed a Fold activation of 2.8.

With `CN(c1ccc(-c2cc3ccc(=O)[nH]c3cc2O)nn1)C1CC(C)(C)NC(C)(C)C1` [Example 9-1, 7-hydroxy-6-(6-(methyl(2,2,6,6-tetramethylpiperidin-4-yl)amino)pyridazin-3-yl)quinolin-2(1H)-one], under setting [1], the “SMN Activity (fold activation over DMSO control)” value stood at 2.25 fold. Also, the EC50 under setting [2] came to 0.03 µM.

On to `Cc1cc(N2CCC2)c2cc(-c3ccc(N(C)C4CC(C)(C)NC(C)(C)C4)nn3)c(O)cc2n1` [Example 20-1, 4-(azetidin-1-yl)-2-methyl-6-(6-(methyl(2,2,6,6-tetramethylpiperidin-4-yl)amino)pyridazin-3-yl)quinolin-7-ol], for which the “SMN Activity (fold activation over DMSO control)” value under setting [1] amounted to 2.86 fold. Under setting [2], the EC50 came to 0.084 µM.

On to `Cc1cc(N2CCCC2)c2cc(-c3ccc(N(C)C4CC(C)(C)NC(C)(C)C4)nn3)c(O)cc2n1` [Example 10-2, 2-methyl-6-(6-(methyl(2,2,6,6-tetramethylpiperidin-4-yl)amino)pyridazin-3-yl)-4-(pyrrolidin-1-yl)quinolin-7-ol], for which, under setting [1], the “SMN Activity (fold activation over DMSO control)” value came out at 2.6 fold. Also, the EC50 under setting [2] amounted to 0.065 µM.

On to `Cc1nc2cc(O)c(-c3ccc(N(C)C4CC(C)(C)NC(C)(C)C4)nn3)cc2nc1C` [Example 18-1, 2,3-dimethyl-7-(6-(methyl(2,2,6,6-tetramethylpiperidin-4-yl)amino)pyridazin-3-yl)quinoxalin-6-ol], for which the “SMN Activity (fold activation over DMSO control)” value under setting [1] is 3.24 fold. The EC50 under setting [2] worked out at 0.015 µM.

For `COc1ccnc2cc(-c3ccc(N(C)C4CC(C)(C)NC(C)(C)C4)nn3)c(O)cc12` [Example 12-1, 4-methoxy-7-(6-(methyl(2,2,6,6-tetramethylpiperidin-4-yl)amino)pyridazin-3-yl)quinolin-6-ol], the “SMN Activity (fold activation over DMSO control)” value under setting [1] turned out to be 2.4 fold. Further, under setting [2], the EC50 was found to be 0.003 µM.

Turning to `Oc1cc2cccnc2cc1-c1ccc(C2=CCNCC2)nn1` [Example 28-1, 7-(6-(1,2,3,6-tetrahydropyridin-4-yl)pyridazin-3-yl)quinolin-6-ol], the “SMN Activity (fold activation over DMSO control)” value under setting [1] is listed as 1.9 fold. Moreover, the EC50 under setting [2] amounted to 0.155 µM.

As for `Oc1cc2ccncc2cc1-c1ccc(N2CCNCC2)nn1` [Example 27-3, 7-(6-(piperazin-1-yl)pyridazin-3-yl)isoquinolin-6-ol], under setting [1], the “SMN Activity (fold activation over DMSO control)” value amounted to 2.74 fold. For the same molecule, the EC50 under setting [2] worked out at 0.199 µM.

As for `CN(c1ccc(-c2cc3cnc(-c4ccccc4)cc3cc2O)nn1)C1CC(C)(C)NC(C)(C)C1` [Example 36-1, 7-(6-(methyl(2,2,6,6-tetramethyl-piperidin-4-yl)amino)-pyridazin-3-yl)-3-phenylisoquinolin-6-ol], the “SMN Activity (fold activation over DMSO control)” value under setting [1] was determined as 2.32 fold. Further, the concentration giving a half-maximal response (EC50) under setting [2] was determined as 0.282 µM.

Regarding `CN1C[C@@H]2CN(c3ccc(-c4cc5cnccc5cc4O)nn3)C[C@@H]2C1` [Example 3-4, 7-(6-((3aR,6aS)-5-methylhexahydropyrrolo[3,4-c]pyrrol-2(1H)-yl)pyridazin-3-yl)isoquinolin-6-ol], under setting [1], the “SMN Activity (fold activation over DMSO control)” value is 2.3 fold. Moreover, the EC50 under setting [2] was 0.06 µM.

Turning to `CN1C(=O)CCc2cc(-c3ccc(N(C)C4CC(C)(C)NC(C)(C)C4)nn3)c(O)cc21` [Example 24-1, 7-hydroxy-1-methyl-6-(6-(methyl(2,2,6,6-tetramethylpiperidin-4-yl)amino)pyridazin-3-yl)-3,4-dihydroquinolin-2(1H)-one], the “SMN Activity (fold activation over DMSO control)” value under setting [1] came to 1.74 fold. For the same molecule, under setting [2], the concentration for a half-maximal effect (EC50) was found to be 0.071 µM.

Regarding `CN(c1ccc(-c2ccc3cccnc3c2)nn1)C1CC(C)(C)NC(C)(C)C1` [drawing 136 R = H], under setting [3], the Fold activation amounted to 2.5. In addition, the concentration giving a half-maximal response (EC50) under setting [4] amounted to 0.37 µM.

Turning to `N#Cc1ccc2cc(O)c(-c3ccc(N4CCNCC4)nn3)cc2n1` [Example 27-1, 6-hydroxy-7-(6-(piperazin-1-yl)pyridazin-3-yl)quinoline-2-carbonitrile], the “SMN Activity (fold activation over DMSO control)” value under setting [1] is 2.49 fold. Besides, the EC50 under setting [2] came out at 0.046 µM.

As for `CN(c1ccc(-c2cc3cc(Cl)cnc3cc2O)nn1)C1CC(C)(C)NC(C)(C)C1` [Example 7-1, 3-chloro-6-(6-(methyl(2,2,6,6-tetramethylpiperidin-4-yl)amino)pyridazin-3-yl)quinolin-7-ol], under setting [1], the “SMN Activity (fold activation over DMSO control)” value stood at 2.8 fold. Further, the EC50 under setting [2] was 0.014 µM.

`CN(c1ccc(-c2ccc3cnccc3c2)nn1)C1CC(C)(C)NC(C)(C)C1` [drawing 138 R = H] returned a Fold activation under setting [3] of 2.7. Under setting [4], the EC50 came to 0.32 µM.

Regarding `CC1(C)CC(Oc2ccc(-c3cc4cnccc4cc3O)nn2)CC(C)(C)N1` [Example 3-3, 7-(6-((2,2,6,6-tetramethylpiperidin-4-yl)oxy)pyridazin-3-yl)isoquinolin-6-ol], the “SMN Activity (fold activation over DMSO control)” value under setting [1] is recorded as 2.5 fold. Further, the EC50 under setting [2] is 0.083 µM.

For `CN(c1ccc(-c2cc3nccc(Cl)c3cc2O)nn1)C1CC(C)(C)NC(C)(C)C1` [Preparation 13, 4-chloro-7-(6-(methyl(2,2,6,6-tetramethylpiperidin-4-yl)amino)pyridazin-3-yl)quinolin-6-ol], the “SMN Activity (fold activation over DMSO control)” value under setting [1] was found to be 2.6 fold. Further, the EC50 under setting [2] was determined as 0.007 µM.

Take `CN(c1ccc(-c2cc3c(Cl)ccnc3cc2O)nn1)C1CC(C)(C)NC(C)(C)C1` [Preparation 12, 4-chloro-6-(6-(methyl(2,2,6,6-tetramethylpiperidin-4-yl)amino)pyridazin-3-yl)quinolin-7-ol]: under setting [1], the “SMN Activity (fold activation over DMSO control)” value is given as 2.6 fold. The EC50 under setting [2] was determined as 0.03 µM.

Broadly, the EC50 is the concentration at which the effect is half-maximal.
